Assay results as given in patent publication US10004754B2, “ANP fragment adjuvant therapy to standard of care (SOC) diuretic treatment” (MADELEINE PHARMACEUTICALS PTY LTD, priority 2014, dated 2018).
Where no end group is shown, it is not given here.

Legend:
[1] = clinical; parameters: species or system human; conditions: in vivo
[2] = system: stable CHF patients; assay: Renal function (eGFR, plasma creatinine, MAG3 clearance) with sc VSDL infusion, Example 2; type: in vivo, human; conditions: for Plasma Creatinine % Change: given without sign, a decrease; for Plasma Creatinine: baseline 161.7 ± 58; for MAG3 Clearance % change: Post-Treatment vs Pre-Treatment
Experimental: A second study was conducted with a population of eighteen (18) test adult CHF patients, both male and female, in order to further evaluate the improvement in renal and cardiac function in stable CHF patients given VSDL (by sc administration) in addition to standard of care (SOC) treatment.
Participants were selected on the basis of the Inclusion and Exclusion criteria given in Example 1. […] In addition, selected patients were required to have a plasma brain natriuretic peptide (BNP) concentration of ≥100 pg/mL and a GFR ≥25 mL/min and <70 mL/min as calculated by the Cockroft Gault calculation (ie moderate renal impairment). On the other hand, the presence of acute MI (ie as indicated by ST elevation and/or elevation of Troponin-T) or evidence of MI or other high risk acute coronary syndrome within the past 6 weeks, hypotension (ie systolic blood pressure (SBP) <90 mmHg), persistent and/or uncontrolled hypertension (SBP>180 mmHg), cardiogenic shock or any other clinical condition that would contraindicate administration of an agent with potent vasodilatory effects, excluded patients from participating in the study. Participants in this study also had standard exclusion criteria that accompany pulmonary artery (SG) catheterisation.
The study was an open-label, sequential group, continuous sc infusion study conducted at a single centre. Two steady-state concentration levels (Css) of VSDL were targeted, approximately 10 ng/mL (n=2 lead-in, and n=10, cohort 1) and 20 ng/mL (n=6, cohort 2). The two lead-in patients were treated with similar dose regimens to confirm that the measured plasma concentrations were in agreement with the targeted Css. Two patients from cohort 1 and all 6 patients from cohort 2 underwent pulmonary artery Swan-Ganz (SG) catheterisation to enable haemodynamic monitoring.
VSDL prepared as described in Example 1, was administered via sc 6 or 12 hour infusion into the lower abdomen at a maximum volume rate of 350 μL/hr (ie approximately 6 μL/min). The rate of infusion of VSDL for the targeted Css level of 10 ng/mL was either 900 μg/hr (0.3 mL/hr) for 12 hrs or a bimodal infusion of 900 μg/hr for 5 hrs followed by 550 μg/hr (0.18 mL/hr) for 7 hrs. The rate of infusion of VSDL for the targeted Css level of 20 ng/mL was bimodal; 1800 μg/hr (0.20 mL/hr) for 5 hrs followed by 1100 μg/hr (0.12 mL/hr) for 7 hrs (see WO 2014/138796). For the lead-in patients, the infusions were performed at 900 μg/hr for 6 hrs.
R Studio (version 4) and GraphPad Prism (GraphPad Software, version 6) were used for all statistical analyses. Statistically significant changes from base line for all parameters were tested using with linear mixed effects model or one-way repeated measures ANOVA with Bonferroni correction. A p value of 0.05 was set for statistically significant differences. All data are reported as mean±s.d or mean (95% CI).
This change was also accompanied by a 10% decrease in plasma creatinine from 162±58 μmol/L at baseline to […] (p≤0.05) during infusion (Table 6).

## EVVPPQVLSEPNEEAGAALSPLPEVPPWTGEVSPAQR [VSDL]
[1]; both sexes, human, sc
  bioavailability: 19.2%
[1]; human, sc
  CL Maximum Elimination rate, Pop value: 26.8 L/h
  F Bioavailability, Pop value: 26.894%
[1]
  ETASHARE Random effect scalinmg factor, Pop value: 1.000 ratio
[1]; iv
  RUVADDIV Residual Error (Additive, I.V.), Pop value: 0.248 ng/mL
  RUVCVIV Residual Error (Proportional, I.V.), Pop value: 0.336 ratio
[1]; sc
  FVOL Infused volume on F, Pop value: 1.590 ratio
  KA Absorption rate constant, Pop value: 0.625 h⁻¹
  LGT Logit F value, Pop value: −1.00
  RUVADDSC Residual Error (Additive, S.C.), Pop value: 0.070 ng/mL
  RUVCVSC Residual Error (Proportional, S.C.), Pop value: 0.259 Ratio
  V2 S.C. bolus V scaling factor, Pop value: 1.62 ratio
  V3 S.C. infusion V scaling factor, Pop value: 3.65 ratio
  V Central volume, Pop value: 13.20 L
[2]; >0.5-6 hs vs baseline
  Plasma Creatinine % Change: (8) %
[2]; >0.5-6 hs
  Plasma Creatinine: 148.5 ± 60 µmol/L
[2]; >6-12 hs vs baseline
  Plasma Creatinine % Change: (10) %
[2]; >6-12 hs
  Plasma Creatinine: 146 ± 60 µmol/L
[2]; FIGS. 6A and B
  eGFR and plasma creatinine in relation to plasma concentration of VSDL: improved with rising circulating levels of VSDL
[2]; Stage 3A CKD
  MAG3 Clearance, Post (Pre-Treatment): 14 ± 7 ml/min/1.73 m^2
  MAG3 Clearance % change: (9) %
[2]; Stage 3A CKD, Post-Treatment, Pre-Treatment 148.5 ± 26
  MAG3 Clearance: 162.5 ± 24 ml/min/1.73 m^2
[2]; Stage 3B CKD
  MAG3 Clearance, Post (Pre-Treatment): .3 ± 9 ml/min/1.73 m^2
  MAG3 Clearance % change: (0) %
[2]; Stage 3B CKD, Post-Treatment, Pre-Treatment 164.5 ± 32
  MAG3 Clearance: 164.8 ± 33 ml/min/1.73 m^2
[2]; Stage 4 CKD
  MAG3 Clearance, Post (Pre-Treatment): 17 ± 16 ml/min/1.73 m^2
  MAG3 Clearance % change: (16) %
[2]; Stage 4 CKD, Post-Treatment, Pre-Treatment 106.0 ± 58
  MAG3 Clearance: 123.3 ± 56 ml/min/1.73 m^2
[2]; adjuvant treatment with VSDL
  eGFR and MAG3 clearance across all classes of CKD: numerical increases
[2]; all patients
  MAG3 Clearance, Post (Pre-Treatment): 9 ± 12 ml/min/1.73 m^2
  MAG3 Clearance % change: (6) %
[2]; all patients, Post-Treatment, Pre-Treatment 140.3 ± 44
  MAG3 Clearance: 148.9 ± 41 ml/min/1.73 m^2
[2]; during infusion vs baseline
  decrease in plasma creatinine: 10%
[2]; during the 12 hour infusion vs baseline
  improvement in eGFR: 16%
[2]; during the 12 hour infusion, baseline 38±11, p≤0.05
  estimated glomerular filtration rate (eGFR): 44±14 ml/min/1.73 m^2
[2]; eGFR 15-29 (Stage 4 CKD), >0.5-6 hs vs baseline
  eGFR % Change: (23) %
[2]; eGFR 15-29 (Stage 4 CKD), >0.5-6 hs, baseline 23.5 ± 5
  eGFR: 28.8 ± 10 ml/min/1.73 m^2
[2]; eGFR 15-29 (Stage 4 CKD), >6-12 hs, baseline 23.5 ± 5
  eGFR: 30 ± 12 ml/min/1.73 m^2
[2]; eGFR 30 to 44 (Stage 3B CKD), >0.5-6 hs vs baseline
  eGFR % Change: (12) %
[2]; eGFR 30 to 44 (Stage 3B CKD), >0.5-6 hs, baseline 37.7 ± 4
  eGFR: 42.3 ± 10 ml/min/1.73 m^2
[2]; eGFR 30 to 44 (Stage 3B CKD), >6-12 hs vs baseline
  eGFR % Change: (12) %
[2]; eGFR 30 to 44 (Stage 3B CKD), >6-12 hs, baseline 37.7 ± 4
  eGFR: 42.3 ± 10 ml/min/1.73 m^2
[2]; eGFR 45-59 (Stage 3A CKD), >0.5-6 hs vs baseline
  eGFR % Change: (8) %
[2]; eGFR 45-59 (Stage 3A CKD), >0.5-6 hs, baseline 49.8 ± 3
  eGFR: 54.0 ± 4 ml/min/1.73 m^2
[2]; eGFR 45-59 (Stage 3A CKD), >6-12 hs vs baseline
  eGFR % Change: (14) %
[2]; eGFR 45-59 (Stage 3A CKD), >6-12 hs, baseline 49.8 ± 3
  eGFR: 56.6 ± 4 ml/min/1.73 m^2
[2]; lead-in patients, 900 μg/hr sc for 6 hours
  renal function (eGFR, MAG3 clearance, plasma creatinine), trend: improved renal function
[2]; patients with eGFR 15-60, >0.5-6 hs vs baseline
  eGFR % Change: (12) %
[2]; patients with eGFR 15-60, >0.5-6 hs, baseline 37.9 ± 11
  eGFR: 42.6 ± 13 ml/min/1.73 m^2
[2]; patients with eGFR 15-60, >6-12 hs vs baseline
  eGFR % Change: (16) %
[2]; patients with eGFR 15-60, >6-12 hs, baseline 37.9 ± 11
  eGFR: 43.8 ± 14 ml/min/1.73 m^2
[2]; post-treatment, pre-treatment 140±44, p≤0.05
  MAG3 Clearance: 149±41 ml/min/1.73 m^2
